Assay results taken from ChEMBL document CHEMBL1201862, “PubChem BioAssay data set” (2004).
Calls of active or inactive are those of the source.

Columns and labels:
[1] = biological target: T1, Corticotropin-releasing factor receptor 2/Corticotropin-releasing factor-binding protein (Homo sapiens, UniProt P24387+Q13324); assay: Dose Response confirmation of uHTS hits for small molecule antagonists of the CRF-binding protein and CRF-R2 receptor complex.; format: functional; details: read-out: IC50_Mean
T1 sequence (Q13324 whole entry): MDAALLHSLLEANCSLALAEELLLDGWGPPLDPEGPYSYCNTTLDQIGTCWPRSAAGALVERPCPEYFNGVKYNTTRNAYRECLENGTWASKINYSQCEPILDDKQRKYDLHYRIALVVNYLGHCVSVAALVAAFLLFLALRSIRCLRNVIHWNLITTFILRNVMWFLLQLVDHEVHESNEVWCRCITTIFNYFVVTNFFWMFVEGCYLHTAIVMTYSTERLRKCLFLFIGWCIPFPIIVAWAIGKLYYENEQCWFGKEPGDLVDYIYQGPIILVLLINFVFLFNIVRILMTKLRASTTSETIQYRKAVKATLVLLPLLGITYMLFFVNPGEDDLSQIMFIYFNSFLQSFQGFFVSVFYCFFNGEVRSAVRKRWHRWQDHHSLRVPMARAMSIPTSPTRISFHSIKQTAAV
T1 sequence (P24387 whole entry): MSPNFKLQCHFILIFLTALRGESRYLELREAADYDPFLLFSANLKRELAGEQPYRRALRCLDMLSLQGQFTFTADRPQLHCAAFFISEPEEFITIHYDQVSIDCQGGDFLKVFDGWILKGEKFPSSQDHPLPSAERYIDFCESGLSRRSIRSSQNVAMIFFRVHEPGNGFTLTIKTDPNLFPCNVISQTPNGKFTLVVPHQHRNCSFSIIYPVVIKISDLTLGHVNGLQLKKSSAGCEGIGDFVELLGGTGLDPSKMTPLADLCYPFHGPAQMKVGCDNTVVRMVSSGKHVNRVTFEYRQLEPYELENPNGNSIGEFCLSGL

[2] = biological target: T1, Corticotropin-releasing factor receptor 2/Corticotropin-releasing factor-binding protein; assay: activators of CRF receptor 2 with binding protein – uHTS hits, confirmation (AID 602473); format: functional; details: read-out: EC50_Mean
[3] = CRF-BP/CRF-R2 complex antagonists, dose response, cell-based, uHTS hits, 384-well (AID 651639); format: functional, Homo sapiens; details: read-out: IC50_Mean
Beta-galactosidase = Beta-galactosidase (Escherichia coli, UniProt Q8VNN2); assay: Dose response counterscreen for EBI2 assay utilizing the enzyme, b-galactosidase.; format: functional
Beta-galactosidase, sequence (Q8VNN2 whole entry): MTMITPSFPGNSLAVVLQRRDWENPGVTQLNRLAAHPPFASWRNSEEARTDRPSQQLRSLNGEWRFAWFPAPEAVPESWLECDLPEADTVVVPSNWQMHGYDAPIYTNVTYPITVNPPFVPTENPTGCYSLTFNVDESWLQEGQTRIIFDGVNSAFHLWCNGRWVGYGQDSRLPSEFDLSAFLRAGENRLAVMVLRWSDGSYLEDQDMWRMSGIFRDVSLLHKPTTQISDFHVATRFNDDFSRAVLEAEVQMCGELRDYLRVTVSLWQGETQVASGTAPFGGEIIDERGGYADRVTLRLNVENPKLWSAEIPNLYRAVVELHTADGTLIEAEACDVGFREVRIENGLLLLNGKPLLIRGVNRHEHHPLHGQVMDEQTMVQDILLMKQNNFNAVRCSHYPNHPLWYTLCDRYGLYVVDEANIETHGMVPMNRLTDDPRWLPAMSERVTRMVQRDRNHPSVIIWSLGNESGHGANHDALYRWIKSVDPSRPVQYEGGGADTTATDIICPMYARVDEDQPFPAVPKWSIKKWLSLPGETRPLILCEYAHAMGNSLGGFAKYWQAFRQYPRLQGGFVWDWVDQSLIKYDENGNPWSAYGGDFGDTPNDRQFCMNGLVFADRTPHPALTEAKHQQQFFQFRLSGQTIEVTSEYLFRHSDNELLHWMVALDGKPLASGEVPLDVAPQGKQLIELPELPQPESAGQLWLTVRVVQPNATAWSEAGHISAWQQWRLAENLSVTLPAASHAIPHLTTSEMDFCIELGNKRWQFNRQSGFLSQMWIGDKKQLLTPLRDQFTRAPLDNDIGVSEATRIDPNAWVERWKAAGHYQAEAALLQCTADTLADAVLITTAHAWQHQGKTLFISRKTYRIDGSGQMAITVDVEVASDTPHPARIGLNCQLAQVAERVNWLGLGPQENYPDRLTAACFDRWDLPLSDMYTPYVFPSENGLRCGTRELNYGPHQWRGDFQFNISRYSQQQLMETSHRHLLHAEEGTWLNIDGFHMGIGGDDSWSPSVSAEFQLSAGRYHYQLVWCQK

[4] = cytotoxicity in HPDE-C7 cells, cell-based, fluorescence, HTS (AID 430); format: functional; details: Homo sapiens
[5] = cytotoxicity in KRAS-transformed pancreatic duct cells, primary screen, cell-based, fluorescence, HTS (AID 431); format: functional; details: Homo sapiens;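 further: cell line used: HPDE-C7K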
[6] = THP-1 cell cytotoxicity, dose response, cytotoxicity control for non-replicating M. tuberculosis project (AID 489025); format: functional
cells = format: functional
[7] = inhibitors of Vif binding to APOBEC3G peptide, primary screen, biochemical, TR-FRET, GST-Vif 1-94, biotin-A3G peptide, dose response retest (AID 1117319); format: functional;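 further: TR-FRET signal of purified GST-Vif binding a biotinylated A3G peptide; inhibitors lower the FRET signal by blocking Vif and A3G binding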
Protein Tat = biological target: T2, Protein Tat (Human immunodeficiency virus type 1 group M subtype B (isolate HXB2)(HIV-1), UniProt P04608); format: functional;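 further: tat binding to TAR RNA read out by fluorescence polarization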
T2 sequence (P04608 whole entry): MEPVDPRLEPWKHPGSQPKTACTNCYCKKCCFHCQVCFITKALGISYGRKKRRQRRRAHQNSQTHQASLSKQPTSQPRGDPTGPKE

Paired box protein Pax-8 = Paired box protein Pax-8 (Homo sapiens, UniProt Q06710); assay: inhibitors of PAX8-driven TPO luciferase reporter, dose response, RMG-I cells, cherry-pick (AID 687027); format: functional, cell-based;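 further: luciferase reporter driven by Pax8 target thyroperoxidase promoter measured by SteadyGlo luminescence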
Paired box protein Pax-8, sequence (Q06710 whole entry): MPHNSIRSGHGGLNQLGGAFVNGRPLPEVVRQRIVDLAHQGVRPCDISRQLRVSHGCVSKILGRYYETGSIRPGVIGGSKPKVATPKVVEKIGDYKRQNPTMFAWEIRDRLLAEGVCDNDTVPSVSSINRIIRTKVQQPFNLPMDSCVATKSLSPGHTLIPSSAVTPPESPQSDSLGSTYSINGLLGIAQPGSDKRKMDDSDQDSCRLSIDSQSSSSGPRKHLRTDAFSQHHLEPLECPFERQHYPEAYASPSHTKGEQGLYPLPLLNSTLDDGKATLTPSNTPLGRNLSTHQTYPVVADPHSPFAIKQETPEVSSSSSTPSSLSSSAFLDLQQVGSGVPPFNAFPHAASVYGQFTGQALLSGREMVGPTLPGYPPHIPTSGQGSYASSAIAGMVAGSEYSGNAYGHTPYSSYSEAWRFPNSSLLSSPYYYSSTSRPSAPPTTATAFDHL

[8] = NIH:OVCAR-3 ovarian cancer cell cytotoxicity, dose response, PAX8 inhibitor project, plate reader, dry powder samples (AID 743044); format: functional, cell-based
[9] = cytotoxicity in OVCAR8 ovarian cancer cells, dose response, PAX8 project, cell-based, plate reader, dry powder samples (AID 743197); format: functional; details: OVCAR-8
[10] = biological target: Eukaryotic translation initiation factor 4E (Mus musculus, UniProt P63073); assay: eIF4E–eIF4G protein interaction inhibitors, dose response, biochemical, TR-FRET (AID 855); format: functional;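 further: potency for disrupting eIF4E binding to eIF4GI seen as loss of FRET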
Eukaryotic translation initiation factor 4E, sequence (P63073 whole entry): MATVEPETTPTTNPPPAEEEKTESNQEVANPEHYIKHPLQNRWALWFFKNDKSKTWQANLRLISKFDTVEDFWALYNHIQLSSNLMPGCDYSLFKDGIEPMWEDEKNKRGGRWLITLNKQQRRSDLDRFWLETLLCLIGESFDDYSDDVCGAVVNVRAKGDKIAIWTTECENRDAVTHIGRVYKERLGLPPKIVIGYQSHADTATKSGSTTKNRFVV

Kallikrein-7 = Kallikrein-7 (Homo sapiens, UniProt P49862); assay: Fluorescence Intensity-based biochemical primary high throughput dose response assay to identify activators of kallikrein-7 (K7) zymogen.
Kallikrein-7, sequence (P49862 whole entry, the tested form may be a part): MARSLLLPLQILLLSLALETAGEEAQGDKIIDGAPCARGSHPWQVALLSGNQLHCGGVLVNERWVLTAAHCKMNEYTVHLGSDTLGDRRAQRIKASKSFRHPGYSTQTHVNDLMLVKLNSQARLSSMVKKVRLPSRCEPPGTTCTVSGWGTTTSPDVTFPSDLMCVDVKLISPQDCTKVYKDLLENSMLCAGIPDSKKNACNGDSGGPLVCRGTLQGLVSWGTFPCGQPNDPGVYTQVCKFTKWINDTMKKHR

[11] = inhibitors of HIV Env-driven cell fusion, dose response, cherry-pick (AID 652057); format: functional, cell-based
[12] = CEM21 lymphoblast cell cytotoxicity, dose response, cytotoxicity control for viral fusion inhibitor project, CellTiter-Glo luminescence, cherry-picked (AID 652042); format: functional, cell-based;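 further: potency for signal decrease meaning cytotoxicity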
[13] = ZM109 Env clade C HIV-1 fusion inhibitors, dose response, HeLa effector, CEM target cells, luciferase, cherry-pick (AID 652058); format: functional, cell-based
[14] = off-target signal loss in HeLa-CEM21 co-culture – HeLa F-luc CTL cells, cherry-picked, counter-screen for HIV-1 Env fusion inhibitor project, dose response (AID 652040); format: functional, cell-based;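 further: potency for signal decrease marking cytotoxic or nonspecific inhibition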
[15] = inhibitors of clade B AD8 Env fusion, dose response, cell-based, cherry-pick (AID 652062); format: functional;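 further: luciferase signal from cell-cell fusion driven by HIV-1 clade B AD8 Env; potency is for inhibitors of fusion seen as a drop in luminescence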

Cc1c(NS(=O)(=O)c2ccccc2)ccc([N+](=O)[O-])c1Cl
IC50 [1]: 3.86 µM (active)
EC50 [2]: > 53 µM (inactive)
IC50 [3]: 13.2 µM (active)

CC(C)N(C)c1ncnc2c1ncn2[C@H]1CN(Cc2ccc(Cl)cc2)C[C@@H](CO)O1
IC50 (Beta-galactosidase): > 80 µM (inactive)

CC(CN1CCOCC1)OC(=O)c1ccc(Br)cc1 (stereo not given)
EC50 [4]: 6.73 µM (active)
EC50 [5]: 9.11 µM (active)
CC50 [6]: 38.2 µM (active)
IC50 (cells): 5.68 µM (active)

COc1ccc(S(=O)(=O)Nc2ccc3c(c2)OCO3)cc1C
IC50 [7]: > 100 µM (active)

COC(=O)C1=C(C)NC(=O)/C1=C\c1cccs1
IC50 (Protein Tat): > 100 µM (active)
IC50 [7]: > 100 µM (active)

C[C@@H]1CCCCO[C@H](CN(C)CC2CCCCC2)[C@H](C)CN([C@@H](C)CO)C(=O)c2cc(NC(=O)Nc3ccccc3)ccc2O1
AC50 (Paired box protein Pax-8): 10.9 µM (active)
AC50 [8]: 57 µM (active)
AC50 [9]: 61 µM (active)

CN(C)S(=O)(=O)[n+]1ccn(C)c1.c1ccc([B-](c2ccccc2)(c2ccccc2)c2ccccc2)cc1
EC50 [4]: 2.68 µM (active)
EC50 [5]: 1.77 µM (active)
IC50 [10]: 15.7 µM (active)

CCOC(=O)c1ccc(NC(=O)CSCc2ccco2)cc1
IC50 (Protein Tat): 81.6 µM (inconclusive)
IC50 [7]: > 73.7 µM (active)

O=S(=O)(c1ccc(-c2cn3ccccc3n2)cc1)N1CCOCC1
EC50 (Kallikrein-7): > 69.5 µM (inactive)

COc1cc(C(=O)O[C@H]2CC(C)=CC[C@@]3(C)CC[C@@](O)(C(C)C)[C@H]23)ccc1O [TEFERIN]
AC50 [11]: 1.19 µM (active)
AC50 [12]: 35.6 µM (active)
AC50 [13]: 1.64 µM (active)
AC50 [14]: 2.35 µM (active)
AC50 [15]: 4.06 µM (active)
